The record followed here is patent publication EP0403172A2, “Purified enzyme and process therefor” (OKLAHOMA STATE UNIVERSITY, priority 1989, dated 1990).

What all share (assay type): biochemical
In assay [1] the target is T1, isopenicillin N epimerase (Streptomyces clavuligerus, UniProt P18549).
T1 construct: Approximately 250 g of frozen whole cells of S. clavuligerus were thawed and homogenated; made in house; host or cells: Streptomyces clavuligerus NRRL 18491 (native producer; the endogenous enzyme was purified from cell-free extract, not made recombinantly)
T1 sequence (P18549 1-398): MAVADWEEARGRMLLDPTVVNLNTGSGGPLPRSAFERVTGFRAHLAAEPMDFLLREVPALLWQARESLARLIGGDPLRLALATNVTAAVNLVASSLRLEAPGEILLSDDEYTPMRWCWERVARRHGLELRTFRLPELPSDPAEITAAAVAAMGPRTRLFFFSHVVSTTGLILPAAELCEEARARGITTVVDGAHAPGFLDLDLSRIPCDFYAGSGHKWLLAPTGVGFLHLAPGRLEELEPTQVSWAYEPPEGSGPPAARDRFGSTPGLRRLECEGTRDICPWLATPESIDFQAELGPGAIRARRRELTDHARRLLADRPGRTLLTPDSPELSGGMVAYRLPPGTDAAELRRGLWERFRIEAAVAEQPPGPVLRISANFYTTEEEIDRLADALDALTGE
Nature of the assay: Epimerase activity assay (product formation from isopenicillin N / penicillin N, quantitated by HPLC after o-phthaldialdehyde derivatization). How it is done: The epimerase activity was determined by the product formation using isopenicillin N and penicillin N as substrates. Formation of isopenicillin N and penicillin N was quantitated by HPLC. […] The reaction mixture was incubated at 37°C for 20 min. The reaction was terminated by placing the reaction vessel in boiling water for 10 min, immediately cooling the reaction mixture with ice, and then filtering the cold mixture through a 0.45 µm filter.
The derivatives were then analyzed by HPLC. The assay samples were prepared for HPLC as follows. The assay filtrate, obtained as described above, 20 µl was mixed with 5 µl of a derivatizing reagent consisting of 4 mg of o-phthaldialdehyde dissolved in 300 µl of methanol, 250 µl of 0.4 M sodium borate, pH 9.4, 390 µl of water and 60 µl of 1 M N-acetyl-L-cysteine, adjusted to pH 5-6 with sodium hydroxide. After a 2 min reaction time, 200 µl of 50 mM sodium acetate, pH 5.0, were added to the mixture and 50 µl aliquots were used for HPLC analysis.

Assay [2] has as its target T1, isopenicillin N epimerase. In words: Conversion to apoenzyme with hydroxylamine / reduction with sodium borohydride, then activity. How it is done:
PLP bound to the epimerase was measured by the known phenylhydrazine method and an average value of one mole of PLP per 47,000 g of enzyme was obtained. The haloenzyme was converted to the apoenzyme by incubation at 0°C for 60 min with 10 mM potassium phosphate, pH 7.0, containing 10 mM hydroxylamine followed by gel filtration. The hydroxylamine treated epimerase expressed no activity in the absence of exogenous PLP and the absorption maximum at 420 nm disappeared (FIG. 1, curve 2). The epimerase activity was restored by the addition of PLP to the apoenzyme. The apparent Michelis constant for PLP was determined to be 2.4 µM.
The absorption spectra shown in FIG. 1 of the drawings were obtained as follows. The epimerase (haloenzyme), curve 1, was treated with 10 mM hydroxylamine (apoenzyme), curve 2, or was reduced with 1 mM sodium borohydride, curve 3. After removal of hydroxylamine or sodium borohydride by gel filtration, absorption spectra were run in 10 mM potassium phosphate, pH 7.0, at the enzyme concentration of 0.57 mg/ml with an Aminco DW-2000 spectrophotometer.

Assay [3] concerns the target T1, isopenicillin N epimerase. Nature of the assay: Fluorescamine titration of hydroxylamine-treated epimerase with activity assay of aliquots. Conditions: fluorescamine/epimerase ratio of 35 mole/mole. The procedure: Fluorescamine reacts with primary amino groups, such as the α-amino group of the N-terminal amino residue and the ε-amino groups of lysine in the enzyme to form fluorescent products with maximum excitation and emission wavelength of 390 nm and 475 nm, respectively.
The emission fluorescence of fluorescamine treated epimerase shown in FIG. 2 of the drawings was obtained as follows. The epimerase (0.5 mg/ml) was incubated in 10 mM potassium phosphate, pH 7.0, containing 10 mM hydroxylamine at 0°C for 60 min. After removal of hydroxylamine by gel filtration, the treated enzyme (0.16 mg/ml) in 10 mM potassium phosphate, pH 7.0, was titrated with the indicated amounts of fluorescamine (50 mM) dissolved in dry acetone at 25°C. The sample was excited at 390 nm and the emission fluorescence was followed at 475 nm. […] Simultaneously, aliquots of the enzyme solution were withdrawn and activity for isopenicillin N was assayed. The assay results (% activity) are shown on the curve labeled "●" in FIG. 2.

[4] abbreviates: compound as epimerase substrate at 1.4 mM, Isopenicillin N = 100, read-out: Relative Activity (%).
[5] abbreviates: compound as epimerase substrate at 1.4 mM, Isopenicillin N = 100.

Molecules are shown by their SMILES. Read-outs that look alike come from different tables or passages of the source. Some results are limits rather than exact numbers.

As to `O[C@H](CS)[C@H](O)CS` (racemic) [Dithiothreitol], the “effect on activity of epimerase” value in assay [1] is on record as “partially stimulated”. In addition, the Activity in assay [1] (sulfhydryl compound at 0.2 mM) is 290 µmol/min/mL; in assay [1] (sulfhydryl compound at 0.5 mM), 300 µmol/min/mL.

Turning to `CC(C)[C@@H](NC(=O)[C@H](CS)NC(=O)CCC[C@H](N)C(=O)O)C(=O)O` [ACV, δ-(L-α-aminoadipoyl)-L-cysteinyl-D-valine], in assay [1] (setting [4]), the Activity worked out at 0%. For the compound `Nc1ncnc2c1ncn2[C@@H]1O[C@H](COP(=O)(O)OP(=O)(O)OP(=O)(O)O)[C@@H](O)[C@H]1O` [ATP, Adenosine Triphosphate], the Activity in assay [1] (Table 4, compound at 1 mM) was found to be 208 µmol/min/mL.

As for `CC(=O)OCC1=C(C(=O)O)N2C(=O)[C@@H](NC(=O)CCC[C@@H](N)C(=O)O)[C@H]2SC1` [Ceph C, cephalosporin C], the Activity in assay [1] (setting [4]) is 0%.

Consider `CC(C)(COP(=O)(O)OP(=O)(O)OC[C@H]1O[C@@H](n2cnc3c(N)ncnc32)[C@H](O)[C@@H]1OP(=O)(O)O)[C@@H](O)C(=O)NCCC(=O)NCCS` [CoA, Coenzyme A], for which the Activity in assay [1] (Table 4, compound at 1 mM) amounted to 202 µmol/min/mL. Consider `N[C@H](CCCC(=O)O)C(=O)O` [D-Amino adipic acid], for which the Activity in assay [1] (setting [4]) came out at 0%. Compound `N[C@@H]1CONC1=O` [D-Cycloserine] gave an inhibition at 1000 µM in assay [1] (compound at 1.0 mM) of 23%. Turning to `N[C@H](CCCC(=O)N[C@@H]1C(=O)N2C(C(=O)O)=C(CO)CS[C@H]12)C(=O)O` [DAC, Deacetylcephalosporin C], the “Relative Activity (%)” value in assay [1] (setting [5]) stood at 0%. As for `CC1=C(C(=O)O)N2C(=O)[C@@H](NC(=O)CCC[C@@H](N)C(=O)O)[C@H]2SC1` [DAOC, Deacetoxycephalosporin C (3-cephem)], in assay [1] (setting [4]), the Activity was less than 1%. As to `Cc1cc2nc3c(=O)[nH]c(=O)nc-3n(C[C@H](O)[C@H](O)[C@H](O)COP(=O)(O)OP(=O)(O)OC[C@H]3O[C@@H](n4cnc5c(N)ncnc54)[C@H](O)[C@@H]3O)c2cc1C` [FAD, Flavin-Adenine Dinucleotide], the Activity in assay [1] (Table 4, compound at 0.5 mM) came to 42 µmol/min/mL. The compound further yielded an inhibition at 500 µM in assay [1] (compound at 0.5 mM) of 80%. `O=S(=O)([O-])[O-].[Fe+2]` [FeSO4] came in with an Activity in assay [1] (Table 4, compound at 0.1 mM) of 150 µmol/min/mL.

Consider `NO` [Hydroxylamine], for which the “Inhibition (%)” value was 80% in assay [1] (compound at 0.1 mM) and 95% in assay [1] (compound at 1.0 mM). For the same compound, the “epimerase activity after treatment” value in assay [2] (10 mM hydroxylamine, 0°C, 60 min, gel filtration, absence of exogenous PLP) is “no activity”. Compound `NC(=O)CI` [Iodoacetamide] displayed an inhibition at 1000 µM in assay [1] (compound at 1.0 mM) of 28%. `CC(C)NNC(=O)c1ccncc1` [Iproniazid] came in with an inhibition at 1000 µM in assay [1] (compound at 1.0 mM) of 25%. In the case of `CC1=CSC2C(NC(=O)CCCC(N)C(=O)O)C(=O)N2C1C(=O)O` (stereo not shown) [IsoDAOC, Isodeacetoxycephalosporin C (2-cephem)], in assay [1] (setting [5]), the “Relative Activity (%)” value was found to be 0%.

`NNC(=O)c1ccncc1` [Isoniazid] yielded an inhibition at 1000 µM in assay [1] (compound at 1.0 mM) of 23%. In the case of `CC1(C)S[C@@H]2[C@H](NC(=O)CCC[C@H](N)C(=O)O)C(=O)N2[C@H]1C(=O)O` [Isopenicillin N], the Activity in assay [1] (setting [4]) is 100%.

`N[C@@H](CCCC(=O)O)C(=O)O` [L-Amino adipic acid]: the Activity in assay [1] (setting [4]) is 0%.

Turning to `CCN1C(=O)C=CC1=O` [N-Ethylmaleimide], in assay [1] (compound at 0.1 mM), the inhibition at 100 µM turned out to be 26%. Besides, the inhibition at 1000 µM in assay [1] (compound at 1.0 mM) worked out at 45%. Turning to `CC(=O)N[C@@H](CS)C(=O)O` [N-acetyl-L-cysteine], the Activity in assay [1] (sulfhydryl compound at 0.2 mM) turned out to be 224 µmol/min/mL; in assay [1] (sulfhydryl compound at 0.5 mM), 190 µmol/min/mL. `NC(=O)C1=CN([C@@H]2O[C@H](COP(=O)(O)OP(=O)(O)OC[C@H]3O[C@@H](n4cnc5c(N)ncnc54)[C@H](O)[C@@H]3O)[C@@H](O)[C@H]2O)C=CC1` [NADH, Reduced Nicotinamide Adenine Dinucleotide] yielded an Activity in assay [1] (Table 4, compound at 1 mM) of 184 µmol/min/mL. On to `Cc1ncc(COP(=O)(O)O)c(C=O)c1O` [PLP, pyridoxal-5′-phosphate], for which the “apparent Michelis constant for PLP” value in assay [1] (PLP added to the apoenzyme (hydroxylamine treated)) was determined as 2.4 µM. Turning to `CC1(C)S[C@@H]2[C@H](NC(=O)CCC[C@@H](N)C(=O)O)C(=O)N2[C@H]1C(=O)O` [Penicillin N], in assay [1] (setting [4]), the Activity is 204%. `O=CC(=O)c1ccccc1` [Phenylglyoxal]: in assay [1] (compound at 1.0 mM), at 1000 µM the inhibition was 33%.

For `O=C1OC2(OC=C(c3ccccc3)C2=O)c2ccccc21` (stereo not shown) [fluorescamine], the epimerase activity remaining entry in assay [3] is on record as “about 80%”.

On to `O=S(=O)(F)Cc1ccccc1` [phenylmethylsulfonyl fluoride], for which, in assay [1], the “effect on activity of epimerase” value is “do not affect”. In the case of `[BH4-].[Na+]` [sodium borohydride], the “catalytic activity after reduction” value in assay [2] (reduction of haloenzyme with sodium borohydride (1 mM), PLP did not restore activity) was “destroyed catalytic activity”.

As to `OCCS` [β-mercaptoethanol], the “effect on activity of epimerase” value in assay [1] is recorded as “partially stimulated”. In addition, the Activity in assay [1] (sulfhydryl compound at 0.2 mM) was 275 µmol/min/mL; in assay [1] (sulfhydryl compound at 0.5 mM), 281 µmol/min/mL.

For orientation: inhibition means the share of the control response that was lost under treatment. Read a high inhibition as strong suppression.
